The source of these data is EP4722216A1, “PYRROLOPYRIMIDINE DERIVATIVE AND USE THEREOF IN MEDICINE” (Kangbaida (Sichuan) Biotechnology Co., Ltd., priority 2023, dated 2024).

In one data set the target is T1, FGFR1 (Homo sapiens, UniProt P11362).
T1 construct: purchased Carna 08-133
The data set can be described thus: FGFR1-4 enzymology, HTRF method (FGFR1). The class given is biochemical. The settings on record: FGFR1 enzyme 0.10 nM, substrate (TK) 1 µM, ATP 40 µM. As to the method:
(§1) The inhibitory effects of compounds on the enzymatic activities of FGFR1, 2, 3, and 4 were detected by using HTRF method (PerkinElmer, 62TK0PEJ). 2× Enzyme and 2× substrate /ATP mixed solutions were prepared using a buffer solution. The final concentrations of FGFR1 enzyme (Cama, 08-133), the substrate (TK), and ATP were 0.10 nM, 1 µM, and 40 µM, respectively; the final concentrations of FGFR2 (Carna, 08-134), the substrate (TK), and ATP were 0.08 nM, 1 µM, and 20 µM, respectively; the final concentrations of FGFR3 (Cama, 08-135), the substrate (TK), and ATP were 0.30 nM, 1 µM, and 50 µM, respectively; and the final concentrations of FGFR4 (Carna, 08-136), the substrate (TK), and ATP were 10 nM, 1 µM, and 50 µM, respectively. The compound stock solution was diluted to 100× working concentration using DMSO. 50 nL/well of the compound was transferred to a 384-well plate using Echo, with 2 replicate wells per concentration. 2.5 µL/well of 2× kinase solution was added to reaction wells, mixed and incubated at 25°C for 10 min. 2.5 µL/well of 2× substrate/ATP solution was added to reaction wells and incubated at 25°C for 50 min. 2× Streptavidin-XL665/Cryptate-antibody mixed solution was prepared using a detection buffer solution (containing EDTA). 5 µL/well of a kinase detection reagent was added to the reaction wells and incubated at 25°C for 60 min. Fluorescence signals at 620 nm (Cryptate) and 665 nm (XL665) were read by a multifunctional microplate reader. IC50 (median inhibitory concentration) of the compound was calculated using the GraphPad nonlinear fitting formula, Y=Bottom + (Top-Bottom)/(1+10^((LogIC50-X) ×HillSlope)), in which X: the logarithmic value of the concentration of the compound; and Y: the inhibition rate of the compound (% inhibition).
(In TR-FRET formats the signal depends on donor and acceptor labels being close together.)

The next data set has as its target T2, FGFR2 (Homo sapiens, UniProt P21802).
T2 construct: purchased Carna 08-134
The data set can be described thus: FGFR1-4 enzymology, HTRF method (FGFR2). To be noted: FGFR2 0.08 nM, substrate (TK) 1 µM, ATP 20 µM. Type of data set: biochemical. On the procedure:
as §1

For a further data set, the target named is T3, FGFR3 (Homo sapiens, UniProt P22607).
T3 construct: purchased Carna 08-135
T3 sequence (P22607 23-806): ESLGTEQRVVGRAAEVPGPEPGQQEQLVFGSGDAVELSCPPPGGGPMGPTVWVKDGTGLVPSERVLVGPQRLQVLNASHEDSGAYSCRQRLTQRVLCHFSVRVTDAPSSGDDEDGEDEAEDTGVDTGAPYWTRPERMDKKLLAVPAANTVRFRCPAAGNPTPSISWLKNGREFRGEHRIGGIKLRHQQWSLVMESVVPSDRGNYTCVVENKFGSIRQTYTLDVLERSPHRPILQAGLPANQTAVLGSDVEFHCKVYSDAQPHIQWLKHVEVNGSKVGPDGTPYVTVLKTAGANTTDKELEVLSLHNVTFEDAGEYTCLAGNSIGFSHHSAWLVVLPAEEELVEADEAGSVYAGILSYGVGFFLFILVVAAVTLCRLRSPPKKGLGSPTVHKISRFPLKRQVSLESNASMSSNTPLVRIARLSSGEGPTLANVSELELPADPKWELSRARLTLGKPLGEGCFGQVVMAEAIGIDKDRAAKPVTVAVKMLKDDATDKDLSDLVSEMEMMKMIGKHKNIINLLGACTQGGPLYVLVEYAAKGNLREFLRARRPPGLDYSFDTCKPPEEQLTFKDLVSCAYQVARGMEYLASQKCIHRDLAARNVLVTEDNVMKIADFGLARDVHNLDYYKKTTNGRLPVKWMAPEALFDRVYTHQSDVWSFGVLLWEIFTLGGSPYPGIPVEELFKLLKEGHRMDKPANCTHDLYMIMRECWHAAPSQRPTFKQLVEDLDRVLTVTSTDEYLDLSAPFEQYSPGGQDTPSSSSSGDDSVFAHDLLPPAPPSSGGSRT
The data set can be described thus: FGFR1-4 enzymology, HTRF method (FGFR3). The class given is biochemical. To be noted: FGFR3 0.30 nM, substrate (TK) 1 µM, ATP 50 µM. On the procedure: as §1

Another data set deals with T4, FGFR4 (Homo sapiens, UniProt P22455).
T4 construct: purchased Carna 08-136
T4 sequence (P22455 22-802): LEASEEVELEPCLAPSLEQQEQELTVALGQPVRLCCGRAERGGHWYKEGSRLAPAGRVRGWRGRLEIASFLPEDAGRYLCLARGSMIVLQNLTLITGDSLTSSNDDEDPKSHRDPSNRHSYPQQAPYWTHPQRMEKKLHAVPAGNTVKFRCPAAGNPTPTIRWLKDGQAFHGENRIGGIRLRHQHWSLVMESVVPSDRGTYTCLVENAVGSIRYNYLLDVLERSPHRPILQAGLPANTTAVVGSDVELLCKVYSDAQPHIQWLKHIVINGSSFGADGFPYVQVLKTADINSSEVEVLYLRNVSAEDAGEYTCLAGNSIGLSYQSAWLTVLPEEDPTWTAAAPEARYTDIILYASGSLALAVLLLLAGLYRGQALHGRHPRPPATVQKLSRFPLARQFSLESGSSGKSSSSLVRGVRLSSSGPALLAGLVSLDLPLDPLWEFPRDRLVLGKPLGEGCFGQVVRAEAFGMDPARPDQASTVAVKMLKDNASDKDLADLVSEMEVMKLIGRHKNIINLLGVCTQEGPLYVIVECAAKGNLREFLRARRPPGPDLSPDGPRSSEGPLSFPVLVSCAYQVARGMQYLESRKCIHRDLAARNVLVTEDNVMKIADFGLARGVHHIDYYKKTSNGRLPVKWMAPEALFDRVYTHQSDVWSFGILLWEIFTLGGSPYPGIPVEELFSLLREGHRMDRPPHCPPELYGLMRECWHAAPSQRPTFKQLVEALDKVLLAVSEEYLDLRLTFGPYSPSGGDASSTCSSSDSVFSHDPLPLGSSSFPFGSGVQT
The data set can be described thus: FGFR1-4 enzymology, HTRF method (FGFR4). The class given is biochemical. The settings on record: FGFR4 10 nM, substrate (TK) 1 µM, ATP 50 µM. On the procedure: as §1

Data set [1] can be described thus: Pharmacokinetic study on mouse brain tissue (plasma/cerebrospinal fluid/brain tissue). The class given is in vivo. The settings on record: ICR mice, intragastric administration 10 mg/kg; for Tmax / half-life: male, mouse, po. As to the method:
An appropriate amount of the test substance was weighed and formulated into a 1 mg/mL transparent and clear solution using 10% DMSO + 5% HS-15 + 85% Saline for intragastric administration. 24 healthy male ICR mice (Charles River, SPF grade) were taken, with 3 animals per time point. Blood samples were collected at 15 min, 0.5, 1, 2, 4, 6, 8, and 24 h after intragastric administration of the test substance (10 mg/kg). The blood sample was anticoagulated with EDTA-K2 and then centrifuged at 6000 g at 4°C for 5 min to separate plasma. The plasma was stored at - 70°C for testing. After blood collection, the animal was sacrificed to collect cerebrospinal fluid, which was stored at -70°C for testing. The brain tissue was rinsed with ice-cold normal saline to remove the residual blood, blotted dry with absorbent paper, and then stored at -70°C for testing. The drug concentration of the specified compound in the plasma/cerebrospinal fluid/brain tissue was determined using LC-MS/MS method (with Gliclazide as an internal standard). The main pharmacokinetic parameters were calculated using a Winnolin 8.3 noncompartmental model.

Data set [2] can be described thus: Pharmacokinetic study in rats in vivo. The settings on record: SD rats; for F: intragastric 5 mg/kg versus intravenous 1 mg/kg; for AUC0-t / Cmax / half-life: male, rat, po, Plasma, intragastric administration 5 mg/kg. As to the method:
An appropriate amount of the test substance was weighed and formulated into a 0.5 mg/mL transparent and clear solution using 10% DMSO + 5% HS-15 + 85% Saline for intravenous administration. The test substance was formulated into a 1 mg/mL uniform suspension using 10% DMSO + 5% HS-15 + 85% Saline for intragastric administration. 6 healthy male SD rats (Charles River, SPF grade) were taken, with 3 animals assigned to the intravenous group and three to the intragastric group, respectively. With 3 animals per time point, blood samples were collected via the jugular vein. Blood samples were collected at 5 min, 15 min, 0.5, 1, 2, 4, 8, and 24 h after intravenous administration of the test substance (1 mg/kg), and blood samples were collected at 15 min, 0.5, 1, 2, 4, 6, 8, and 24 h after intragastric administration of the test substance (5 mg/kg). After anticoagulation with EDTA-K2, the blood samples were centrifuged at 6000 g at 4°C for 5 min to separate plasma, and all plasma samples were stored at -70°C for testing. The drug concentration of the test substance in plasma was determined by LC-MS/MS method (with gliclazide as an internal standard), and the main pharmacokinetic parameters were calculated by Winnolin 8.3 non-compartment model. The intragastric administration results are as follows: […]

The target in a further data set is FGFR2 V564I (Homo sapiens, UniProt P21802, V564I). The data set can be described thus: FGFR2 and FGFR3 mutant enzymology, HTRF method (FGFR2 V564I). Type of data set: biochemical. The settings on record: kinase 0.03 nM, substrate 1 µM, ATP 20 µM. As to the method:
(§2) The inhibitory effects of the compounds on the enzymatic activities of FGFR2 and FGFR3 mutants by using HTRF method (PerkinElmer, 62TK0PEJ). 2× Enzyme and 2× substrate /ATP mixed solutions were prepared using a buffer solution.
(§3) The compound stock solution was diluted to 100× working concentration using DMSO. 50 nL/well of the compound was transferred to a 384-well plate using Echo, with 2 replicate wells per concentration. 2.5 µL/well of 2× kinase solution was added to reaction wells, mixed and incubated at 25°C for 10 min. 2.5 µL/well of 2× substrate/ATP solution was added to reaction wells and incubated at 25°C for 50 min. 2× Streptavidin-XL665/Cryptate-antibody mixed solution was prepared using a detection buffer solution (containing EDTA). 5 µL/well of a kinase detection reagent was added to the reaction wells and incubated at 25°C for 60 min. Fluorescence signals at 620 nm (Cryptate) and 665 nm (XL665) were read by a multifunctional microplate reader. According to the test results, the inhibition rate was calculated. […] IC50 (median inhibitory concentration) of the compound was calculated using the GraphPad nonlinear fitting formula, Y = Bottom + (Top-Bottom)/(1+10^((LogIC50-X) ×HillSlope)), in which X: the logarithmic value of the concentration of the compound; and Y: the inhibition rate of the compound (% inhibition).

The target of another data set is FGFR2 V564F (Homo sapiens, UniProt P21802, V564F). The data set can be described thus: FGFR2 and FGFR3 mutant enzymology, HTRF method (FGFR2 V564F). Type of data set: biochemical. To be noted: kinase 0.02 nM, substrate 1 µM, ATP 15 µM. As to the method:
as §2, §3

Another data set has as its target FGFR2 N549H (Homo sapiens, UniProt P21802, N549H). The data set can be described thus: FGFR2 and FGFR3 mutant enzymology, HTRF method (FGFR2 N549H). The class given is biochemical. The settings on record: kinase 0.02 nM, substrate 1 µM, ATP 9 µM. As to the method:
as §2, §3

A further data set has as its target FGFR3 K650M (Homo sapiens, UniProt P22607, K650M). The data set can be described thus: FGFR2 and FGFR3 mutant enzymology, HTRF method (FGFR3 K650M). Type of data set: biochemical. To be noted: kinase 0.10 nM, substrate 1 µM, ATP 12 µM. On the procedure: as §2, §3
The target of a further data set is FGFR3 V555M (Homo sapiens, UniProt P22607, V555M). The data set can be described thus: FGFR2 and FGFR3 mutant enzymology, HTRF method (FGFR3 V555M). Type of data set: biochemical. The settings on record: kinase 0.55 nM, substrate 1 µM, ATP 20 µM. As to the method:
as §2, §3

Some results are limits rather than exact numbers.

T1 sequence (P11362 22-822): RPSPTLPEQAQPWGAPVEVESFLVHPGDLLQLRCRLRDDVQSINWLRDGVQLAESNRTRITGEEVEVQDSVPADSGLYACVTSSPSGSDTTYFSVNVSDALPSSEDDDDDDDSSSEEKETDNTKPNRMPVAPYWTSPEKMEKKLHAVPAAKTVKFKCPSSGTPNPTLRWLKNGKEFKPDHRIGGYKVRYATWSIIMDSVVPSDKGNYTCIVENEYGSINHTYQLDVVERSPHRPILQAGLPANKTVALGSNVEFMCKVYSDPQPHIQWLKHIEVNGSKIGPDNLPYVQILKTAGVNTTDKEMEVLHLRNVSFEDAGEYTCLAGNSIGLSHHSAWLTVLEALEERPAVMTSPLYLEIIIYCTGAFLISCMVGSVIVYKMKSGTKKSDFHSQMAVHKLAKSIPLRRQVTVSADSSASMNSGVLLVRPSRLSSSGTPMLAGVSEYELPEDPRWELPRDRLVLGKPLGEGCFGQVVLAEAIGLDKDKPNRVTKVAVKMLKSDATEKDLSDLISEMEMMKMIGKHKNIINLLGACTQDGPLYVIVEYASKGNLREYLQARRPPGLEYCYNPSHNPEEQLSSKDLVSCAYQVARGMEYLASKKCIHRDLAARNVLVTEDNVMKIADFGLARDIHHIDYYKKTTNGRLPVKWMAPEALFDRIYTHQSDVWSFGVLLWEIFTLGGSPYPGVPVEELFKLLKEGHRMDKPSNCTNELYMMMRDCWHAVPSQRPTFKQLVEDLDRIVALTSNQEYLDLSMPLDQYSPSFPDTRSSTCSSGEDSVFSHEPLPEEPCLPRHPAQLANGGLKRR
T2 sequence (P21802 22-821): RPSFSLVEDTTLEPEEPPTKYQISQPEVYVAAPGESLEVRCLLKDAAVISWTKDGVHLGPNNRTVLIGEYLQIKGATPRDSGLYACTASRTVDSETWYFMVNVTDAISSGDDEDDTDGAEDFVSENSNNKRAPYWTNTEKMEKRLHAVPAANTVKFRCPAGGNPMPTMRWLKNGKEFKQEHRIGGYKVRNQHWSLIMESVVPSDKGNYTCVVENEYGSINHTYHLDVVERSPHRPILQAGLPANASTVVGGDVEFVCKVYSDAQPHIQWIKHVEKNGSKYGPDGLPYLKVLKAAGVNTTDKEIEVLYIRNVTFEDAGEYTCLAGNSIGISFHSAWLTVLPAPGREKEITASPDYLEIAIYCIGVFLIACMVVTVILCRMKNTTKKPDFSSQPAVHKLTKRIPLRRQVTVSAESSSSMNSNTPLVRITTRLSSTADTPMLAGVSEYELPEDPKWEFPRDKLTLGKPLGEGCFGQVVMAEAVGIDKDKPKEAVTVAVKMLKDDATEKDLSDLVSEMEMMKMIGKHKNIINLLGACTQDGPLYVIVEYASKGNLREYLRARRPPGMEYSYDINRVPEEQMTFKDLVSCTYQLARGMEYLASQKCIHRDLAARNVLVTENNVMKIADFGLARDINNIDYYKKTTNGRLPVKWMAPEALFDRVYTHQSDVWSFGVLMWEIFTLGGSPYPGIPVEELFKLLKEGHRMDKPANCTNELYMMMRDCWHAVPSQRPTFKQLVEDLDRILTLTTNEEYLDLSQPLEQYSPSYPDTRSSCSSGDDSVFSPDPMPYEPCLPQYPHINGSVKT
Sequence of FGFR2 N549H (P21802 22-821 N549H): as the sequence (P21802 22-821) above, with N528H counted along it
Sequence of FGFR2 V564F (P21802 22-821 V564F): as the sequence (P21802 22-821) above, with V543F counted along it
Sequence of FGFR3 K650M (P22607 23-806 K650M): as the sequence (P22607 23-806) above, with K628M counted along it
Sequence of FGFR2 V564I (P21802 22-821 V564I): as the sequence (P21802 22-821) above, with V543I counted along it
Sequence of FGFR3 V555M (P22607 23-806 V555M): as the sequence (P22607 23-806) above, with V533M counted along it

In the case of `C=C(C(=O)Nc1ccc(-c2c(-c3ccc(Oc4nccc(C)n4)c(F)c3)c3c(N)ncnc3n2C)cc1)C1CC1` [Compound 1, N-(4-(4-amino-5-(3-fluoro-4-((4-methylpyrimidin-2-yl)oxy)phenyl)-7-methyl-7H-pyrrolo[2,3-d]pyrimidin-6-yl)phenyl]-2-cyclopropylacrylamide], the IC50 against FGFR1 was > 1000 nM; against FGFR2, 23.8 nM; on FGFR3 it was > 1000 nM; at FGFR4, > 1000 nM. In addition, the AUC0-t in data set [1] (Brain tissue) is 524 h*ng/mL or h*ng/g; in data set [1] (Cerebrospinal fluid) it was 59 h*ng/mL or h*ng/g; in data set [1] (Plasma) it was 50857 h*ng/mL or h*ng/g; in [2] it was 3190 ng·h/mL. In addition, the figures for the Tmax in [1] (Brain tissue), in [1] (Cerebrospinal fluid) and in data set [1] (Plasma) were 1 h, 0.5 h and 1 h, respectively. The half-life in data set [1] (Brain tissue) is 3 h; in [1] (Cerebrospinal fluid) it was 6.3 h; in data set [1] (Plasma) it was 3.1 h; in data set [2] it was 1.9 h. The F in [2] was 90.8%. Further, the Cmax in data set [2] turned out to be 938 ng/mL.
For `C=C(C(=O)Nc1ccc(-c2c(-c3ccc(Oc4nccc(C)n4)c(F)c3)c3c(N)ncnc3n2C)cn1)C1CC1` [Compound 2, N-(5-(4-amino-5-(3-fluoro-4-((4-methylpyrimidin-2-yl)oxy)phenyl)-7-methyl-7H-pyrrolo[2,3-d]pyrimidin-6-yl)pyridin-2-yl]-2-cyclopropylacrylamide], the IC50 on FGFR1 was 407 nM; at FGFR2, 12 nM; against FGFR3, 149 nM; on FGFR4, > 1000 nM.
Take `C=C(C(=O)Nc1ccc(-c2c(-c3ccc(Oc4nccc(C)n4)c(F)c3)c3c(N)ncnc3n2C)c(Cl)c1)C1CC1` [Compound 4, N-(4-(4-amino-5-(3-fluoro-4-((4-methylpyrimidin-2-yl)oxy)phenyl)-7-methyl-7H-pyrrolo[2,3-d]pyrimidin-6-yl)-3-chlorophenyl)-2-cyclopropylacrylamide]: the IC50 was 165 nM on FGFR1; 1.7 nM against FGFR2; 64.2 nM against FGFR3; > 1000 nM at FGFR4; 15 nM at FGFR2 V564I; 0.5 nM at FGFR2 V564F. Besides, the IC50 against FGFR2 N549H is 5.2 nM; against FGFR3 K650M, 271 nM; against FGFR3 V555M, 120 nM. Further, the AUC0-t in [1] (Brain tissue) is 277 h*ng/mL or h*ng/g; in [1] (Cerebrospinal fluid), 9 h*ng/mL or h*ng/g; in data set [1] (Plasma) it was 21966 h*ng/mL or h*ng/g; in [2], 787 ng·h/mL. Also, the Tmax in [1] (Brain tissue) was 1 h; in data set [1] (Cerebrospinal fluid), 1 h; in data set [1] (Plasma), 0.5 h. The half-life was 1.7 h in data set [1] (Brain tissue), 1.8 h in data set [1] (Plasma) and 0.9 h in data set [2]. Further, the F in data set [2] is on record as 24.2%. The same molecule showed a Cmax in data set [2] of 273 ng/mL.
Turning to `C=C(C(=O)Nc1ccc(-c2c(-c3ccc(Oc4nccc(C)n4)c(F)c3)c3c(N)ncnc3n2C)c(F)c1)C1CC1` [Compound 5, N-(4-(4-amino-5-(3-fluoro-4-((4-methylpyrimidin-2-yl)oxy)phenyl)-7-methyl-7H-pyrrolo[2,3-d]pyrimidin-6-yl)-3-fluorophenyl)-2-cyclopropylacrylamide], the IC50 at FGFR1 is 550 nM; against FGFR2, 7.3 nM; against FGFR3 it was 246 nM; on FGFR4, > 1000 nM.
For `C=C(C(=O)Nc1ccc(-c2c(-c3ccc(Oc4cccc(Cl)n4)c(F)c3)c3c(N)ncnc3n2C)cc1)C1CC1` [Compound 9, N-(4-(4-amino-5-(4-((6-chloropyridin-2-yl)oxy)-3-fluorophenyl)-7-methyl-7H-pyrrolo[2,3-d]pyrimidin-6-yl)phenyl)-2-cyclopropylacrylamide], in that order: > 1000 nM, 65.5 nM, > 1000 nM and > 1000 nM.

The IC50 is the concentration needed to halve the response being measured. A lower IC50 goes with greater potency. A word on the Tmax: it is the time at which the peak concentration occurs. Broadly, the half-life is the time in which the quantity being followed falls by half. High values mean slow decline, low ones rapid decline. One may read the Cmax as the peak of the concentration-time curve.
